Assay results reported in US20090247559A1 (Exelixis, Inc., priority 2007, published 2009).
Where two headings read alike, the source gives them in different places.

Columns and labels:
CDC7 = CDC7 (Homo sapiens, UniProt O00311); experiment: CDC7 inhibition, biochemical chemiluminescence assay (Kinase Glo, IC50 determination)
Method in brief: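 CDC7 enzyme preincubated with compound 10 min at ambient temperature, then ATP mix in Tris Base added; reaction 90 min at 24-27 °C. Remaining ATP quantified by Kinase Glo luminescence to give IC50.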

CK2 = CK2 (Homo sapiens, UniProt P68400); experiment: CK2 inhibition, biochemical chemiluminescence holoenzyme assay (Kinase Glo, IC50 determination); conditions: Table 1 activity class; symbol given only if active; read-out: CK2 IC50 (Activity C)
Method in brief: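 Holoenzyme CK2 assay; compounds pre-incubated with substrate and enzyme, then reacted 150 min at 24-27° C. Remaining ATP measured as luminescence with Kinase Glo, and IC50 derived from the signal.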

[1] = molecular target: PIM (PIM-1, PIM-2, and/or PIM-3); experiment: PIM-1, PIM-2 and PIM-3 inhibition, biochemical chemiluminescence assays (Kinase Glo, IC50 determination); conditions: Table 1 activity class; PIM refers to PIM-1, PIM-2, and/or PIM-3; read-out: PIM IC50 (Activity B)
[2] = Table 1 activity class, symbol given only if active, read-out: CDC7 IC50 (Activity A)
[3] = compounds in Table 1, read-out: CDC7 IC50 value

CDC7, sequence (O00311 whole entry): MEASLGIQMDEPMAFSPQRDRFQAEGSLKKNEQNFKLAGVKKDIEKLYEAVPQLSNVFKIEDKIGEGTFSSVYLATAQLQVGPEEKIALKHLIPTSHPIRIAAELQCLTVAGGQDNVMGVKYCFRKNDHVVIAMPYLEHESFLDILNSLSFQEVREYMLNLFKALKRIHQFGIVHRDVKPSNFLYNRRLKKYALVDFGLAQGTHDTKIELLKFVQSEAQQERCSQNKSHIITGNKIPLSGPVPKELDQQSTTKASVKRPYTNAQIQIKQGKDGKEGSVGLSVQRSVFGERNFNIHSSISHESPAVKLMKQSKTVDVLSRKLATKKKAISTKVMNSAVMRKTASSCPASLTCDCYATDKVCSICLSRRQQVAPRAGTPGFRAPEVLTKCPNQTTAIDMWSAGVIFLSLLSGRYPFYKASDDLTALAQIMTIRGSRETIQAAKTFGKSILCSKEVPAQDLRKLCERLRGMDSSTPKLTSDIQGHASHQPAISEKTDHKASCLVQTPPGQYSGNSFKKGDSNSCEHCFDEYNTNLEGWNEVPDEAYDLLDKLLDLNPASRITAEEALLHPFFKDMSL
CDC7, sequence (Q9UBU7 whole entry partner): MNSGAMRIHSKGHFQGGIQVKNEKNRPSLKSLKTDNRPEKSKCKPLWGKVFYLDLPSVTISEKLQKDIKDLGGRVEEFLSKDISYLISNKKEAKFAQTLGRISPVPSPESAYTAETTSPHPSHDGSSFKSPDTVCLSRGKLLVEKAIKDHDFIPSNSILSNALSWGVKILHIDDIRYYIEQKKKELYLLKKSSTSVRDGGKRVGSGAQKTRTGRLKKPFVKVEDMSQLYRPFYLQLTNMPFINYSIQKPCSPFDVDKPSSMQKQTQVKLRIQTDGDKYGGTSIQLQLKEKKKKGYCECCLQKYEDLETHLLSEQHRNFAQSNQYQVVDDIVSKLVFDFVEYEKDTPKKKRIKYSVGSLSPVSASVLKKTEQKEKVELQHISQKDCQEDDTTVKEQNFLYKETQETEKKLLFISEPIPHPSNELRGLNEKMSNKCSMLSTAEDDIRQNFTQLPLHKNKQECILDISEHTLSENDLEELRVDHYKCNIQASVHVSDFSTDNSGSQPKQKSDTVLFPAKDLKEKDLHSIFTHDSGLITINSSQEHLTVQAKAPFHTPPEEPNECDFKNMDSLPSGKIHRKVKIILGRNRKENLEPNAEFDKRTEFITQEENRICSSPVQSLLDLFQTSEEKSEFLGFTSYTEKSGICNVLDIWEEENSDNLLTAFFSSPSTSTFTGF
CK2, sequence (P68400 whole entry): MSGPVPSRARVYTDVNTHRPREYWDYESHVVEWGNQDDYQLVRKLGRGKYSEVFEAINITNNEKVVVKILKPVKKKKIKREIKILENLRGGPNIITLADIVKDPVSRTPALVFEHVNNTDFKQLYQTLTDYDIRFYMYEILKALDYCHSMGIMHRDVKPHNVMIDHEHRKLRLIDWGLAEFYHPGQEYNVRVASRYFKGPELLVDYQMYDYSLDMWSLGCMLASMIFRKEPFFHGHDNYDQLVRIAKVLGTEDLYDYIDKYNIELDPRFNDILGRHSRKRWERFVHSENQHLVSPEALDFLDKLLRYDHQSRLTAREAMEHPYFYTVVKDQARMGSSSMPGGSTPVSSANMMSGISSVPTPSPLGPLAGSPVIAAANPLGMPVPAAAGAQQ
CK2, sequence (P67870 whole entry partner): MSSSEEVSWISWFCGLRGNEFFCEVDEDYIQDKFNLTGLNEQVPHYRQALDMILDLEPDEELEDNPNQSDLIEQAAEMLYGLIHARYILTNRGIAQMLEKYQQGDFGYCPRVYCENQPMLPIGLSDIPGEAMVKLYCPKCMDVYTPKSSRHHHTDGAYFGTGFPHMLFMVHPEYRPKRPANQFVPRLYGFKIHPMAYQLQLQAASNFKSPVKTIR

Structure (SMILES)	IC50 (CDC7; [2]) [µM]	IC50 (CDC7; [3]) [µM]	IC50 (CK2) [µM]	IC50 [1] [µM]
NC1(c2nc3c(oc4ccc(Br)cc43)c(=O)[nH]2)CCC1 [Compound 544, 2-(1-aminocyclobutyl)-8-bromo[1]benzofuro[3,2-d]pyrimidin-4(3H)-one]	< 10	< 0.1	< 10	< 10
O=c1[nH]c(-c2cccc3c2CCNC3)nc2c1oc1ccc(Br)cc12 [Compound 375, 8-Bromo-2-(1,2,3,4-tetrahydroisoquinolin-5-yl)[1]benzofuro[3,2-d]pyrimidin-4(3H)-one]	< 10	< 0.1	< 10	< 10
O=c1[nH]c(-c2cnccc2Cl)nc2c1oc1ccc(Br)cc12 [Compound 148, 8-bromo-2-(4-chloropyridin-3-yl)[1]benzofuro[3,2-d]pyrimidin-4(3H)-one]	< 10		< 10	< 10
O=c1[nH]c(C2CCCNC2)nc2c1oc1ccc(Br)cc12 (centres unmarked) [Compound 158, 8-Bromo-2-piperidin-3-yl[1]benzofuro[3,2-d]pyrimidin-4(3H)-one]	< 10	< 0.1	< 10	< 10
CC(C)(CN1CCCCC1)NCc1nc2c(oc3ccc(Br)cc32)c(=O)[nH]1 [Compound 191, 8-bromo-2-{[(1,1-dimethyl-2-piperidin-1-ylethyl)amino]methyl}[1]benzofuro[3,2-d]pyrimidin-4(3H)-one]	< 10	< 0.1	< 10	< 10
O=c1[nH]c(CN2CC3CCC2C3O)nc2c1oc1ccc(Br)cc12 (centres unmarked) [Compound 412, 8-bromo-2-[(7-hydroxy-2-azabicyclo[2.2.1]hept-2-yl)methyl][1]benzofuro[3,2-d]pyrimidin-4(3H)-one]	< 10	< 0.1	< 10	< 10
O=c1[nH]c(CN2CCCC(O)C2)nc2c1oc1ccc(Br)cc12 (centres unmarked) [Compound 400, 8-bromo-2-[(3-hydroxypiperidin-1-yl)methyl][1]benzofuro[3,2-d]pyrimidin-4(3H)-one]	< 10	< 0.1	< 10	< 10
Cc1cnc(C(=O)Nc2ccc(-c3nc4c(oc5ccc(Br)cc54)c(=O)[nH]3)c(Cl)c2)cn1 [Compound 312, N-[4-(8-bromo-4-oxo-3,4-dihydro[1]benzofuro[3,2-d]pyrimidin-2-yl)-3-chlorophenyl]-5-methylpyrazine-2-carboxamide]	< 10		< 10	< 10
O=C(Nc1ccc(-c2nc3c(oc4ccc(Br)cc43)c(=O)[nH]2)c(Cl)c1)c1ccnc(Cl)c1 [Compound 276, N-[4-(8-bromo-4-oxo-3,4-dihydro[1]benzofuro[3,2-d]pyrimidin-2-yl)-3-chlorophenyl]-2-chloropyridine-4-carboxamide]	< 10		< 10	< 10
CN1CC(c2nc3c(oc4ccc(Br)cc43)c(=O)[nH]2)C1 [Compound 221, 8-Bromo-2-(1-methylazetidin-3-yl)[1]benzofuro[3,2-d]pyrimidin-4(3H)-one]	< 10	< 0.1	< 10	< 10
CC(C)(CN1CCOCC1)NCc1nc2c(oc3ccc(Br)cc32)c(=O)[nH]1 [Compound 130, 8-bromo-2-{[(1,1-dimethyl-2-morpholin-4-ylethyl)amino]methyl}[1]benzofuro[3,2-d]pyrimidin-4(3H)-one]	< 10		< 10	< 10
O=c1[nH]c(C[C@@H]2CCCNC2)nc2c1oc1ccc(Br)cc12 [Compound 305, 8-bromo-2-[(3S)-piperidin-3-ylmethyl][1]benzofuro[3,2-d]pyrimidin-4(3H)-one]	< 10		< 10	< 10
NC1(c2nc3c(oc4ccc(Br)cc43)c(=O)[nH]2)CCCC1 [Compound 543, 2-(1-aminocyclopentyl)-8-bromo[1]benzofuro[3,2-d]pyrimidin-4(3H)-one]	< 10	< 0.1	< 10	< 10
O=C(Nc1ccc(-c2nc3c(oc4ccc(Br)cc43)c(=O)[nH]2)c(Cl)c1)c1cnco1 [Compound 374, N-[4-(8-bromo-4-oxo-3,4-dihydro[1]benzofuro[3,2-d]pyrimidin-2-yl)-3-chlorophenyl]-1,3-oxazole-5-carboxamide]	< 10		< 10	< 10
O=c1[nH]c([C@@H]2CSCN2)nc2c1oc1ccc(Br)cc12 [Compound 500, 8-bromo-2-[(4R)-1,3-thiazolidin-4-yl][1]benzofuro[3,2-d]pyrimidin-4(3H)-one]	< 10		< 10	< 10
O=C(Nc1ccc(-c2nc3c(oc4ccc(Br)cc43)c(=O)[nH]2)c(Cl)c1)c1cnccn1 [Compound 323, N-[4-(8-bromo-4-oxo-3,4-dihydro[1]benzofuro[3,2-d]pyrimidin-2-yl)-3-chlorophenyl]pyrazine-2-carboxamide]	< 10		< 10	< 10
O=c1[nH]c([C@@H]2CCCN2)nc2c1oc1ccccc12 [Compound 506, 2-[(2S)-pyrrolidin-2-yl][1]benzofuro[3,2-d]pyrimidin-4(3H)-one]	< 10		< 10	< 10
C[C@H](N)c1nc2c(oc3ccc(Cl)cc32)c(=O)[nH]1 [Compound 533, 2-[(1S)-1-aminoethyl]-8-chloro[1]benzofuro[3,2-d]pyrimidin-4(3H)-one]	< 10	< 0.1	< 10	< 10
CC(C)NCc1ccc(-c2nc3c(oc4ccc(Br)cc43)c(=O)[nH]2)c(Cl)c1 [Compound 430, 8-bromo-2-(2-chloro-4-{[(1-methylethyl)amino]methyl}phenyl)[1]benzofuro[3,2-d]pyrimidin-4(3H)-one]	< 10		< 10	< 10
O=C(Nc1ccc(-c2nc3c(oc4ccc(Br)cc43)c(=O)[nH]2)c(Cl)c1)c1ccccn1 [Compound 293, N-[4-(8-bromo-4-oxo-3,4-dihydro[1]benzofuro[3,2-d]pyrimidin-2-yl)-3-chlorophenyl]pyridine-2-carboxamide]	< 10		< 10	< 10
CC(C)(N)c1nc2c(oc3ccc(Cl)cc32)c(=O)[nH]1 [Compound 49, 2-(1-Amino-1-methylethyl)-8-chloro[1]benzofuro[3,2-d]pyrimidin-4(3H)-one]	< 10	< 0.1	< 10	< 10
CC(c1nc2c(oc3ccc(Br)cc32)c(=O)[nH]1)N1CC[C@H](O)C1 (stereo partly drawn) [Compound 508, 8-bromo-2-{1-[(3S)-3-hydroxypyrrolidin-1-yl]ethyl}[1]benzofuro[3,2-d]pyrimidin-4(3H)-one]	< 10	< 0.1	< 10	< 10
O=C(Nc1ccc(-c2nc3c(oc4ccc(Br)cc43)c(=O)[nH]2)c(Cl)c1)c1csnn1 [Compound 406, N-[4-(8-bromo-4-oxo-3,4-dihydro[1]benzofuro[3,2-d]pyrimidin-2-yl)-3-chlorophenyl]-1,2,3-thiadiazole-4-carboxamide]	< 10		< 10	< 10
O=c1[nH]c(C2CNC2)nc2c1oc1ccc(Br)cc12 [Compound 198, 2-Azetidin-3-yl-8-bromo[1]benzofuro[3,2-d]pyrimidin-4(3H)-one]	< 10	< 0.1	< 10	< 10
COc1ccc(Br)c2oc3c(=O)[nH]c(CN4CC[C@H](O)C4)nc3c12 [Compound 428, 6-bromo-2-{[(3S)-3-hydroxypyrrolidin-1-yl]methyl}-9-(methyloxy)[1]benzofuro[3,2-d]pyrimidin-4(3H)-one]	< 10		< 10	< 10
NCc1nc2c(oc3ccc(Br)cc32)c(=O)[nH]1 [Compound 195, 2-(aminomethyl)-8-bromo[1]benzofuro[3,2-d]pyrimidin-4(3H)-one]	< 10		< 10	< 10
O=c1[nH]c(CN2CC3CCC2C3O)nc2c1oc1ccc(Br)cc12 (racemic) [Compound 332, 8-bromo-2-((7-hydroxy-2-azabicyclo[2.2.1]heptan-2-yl)methyl)benzofuro[3,2-d]pyrimidin-4(3H)-one]	< 10	< 0.1	< 10	< 10
CN1[C@@H]2CC[C@H]1CN(Cc1nc3c(oc4ccc(Br)cc43)c(=O)[nH]1)CC2 [Compound 425, 8-bromo-2-{[(1S,6R)-9-methyl-3,9-diazabicyclo[4.2.1]non-3-yl]methyl}[1]benzofuro[3,2-d]pyrimidin-4(3H)-one]	< 10		< 10	< 10
O=c1[nH]c([C@@H]2C=CCN2)nc2c1oc1ccc(Br)cc12 [Compound 505, 8-bromo-2-[(2S)-2,5-dihydro-1H-pyrrol-2-yl][1]benzofuro[3,2-d]pyrimidin-4(3H)-one]	< 10	< 0.1	< 10	< 10
O=C(NCc1cccc(Cl)c1)C1CCN(Cc2nc3c(oc4ccc(Br)cc43)c(=O)[nH]2)C1 (centres unmarked) [Compound 264, 1-[(8-bromo-4-oxo-3,4-dihydro[1]benzofuro[3,2-d]pyrimidin-2-yl)methyl]-N-[(3-chlorophenyl)methyl]pyrrolidine-3-carboxamide]	< 10		< 10	< 10
